Laboratory results reported in US7186732B2, “Non-imidazole aryloxyalkylamines” (Ortho-McNeil Pharmaceutical, Inc., priority 2000, dated 2007).
Counter-ions that a name gives are not always drawn. Like-named read-outs stand apart in the source and are kept apart here.

Target: T1, human histamine H3 receptor (Homo sapiens, UniProt Q9Y5N1)
T1 construct: expressed in transfected cells; membranes prepared from cell pellets
Assay: [3H]-N-methylhistamine binding to membranes of histamine H3 receptor-expressing SK-N-MC cells
Settings: 0.8 nM [3H]-N-methylhistamine, 45 min at 25° C., SK-N-MC cell membranes, read-out: Ki
Method: Thus in the present invention receptor binding was determined using the human histamine H3 receptor (See Lovenberg et al Mol. Pharmacol. 1999, 1107). Screening using the human receptor is particularly important for the identification of new therapies for the treatment of human disease. Conventional binding assays for example are determined using rat synaptosomes (Garbarg et al J. Pharmacol. Exp. Ther. 1992, 263, 304), rat cortical membranes (West et al Mol. Pharmacol. 1990, 610), and guinea pig brain (Korte et al Biochem. Biophys. Res. Commun. 1990, 978).
Transfection of Cells with Human Histamine Receptor
A 10 cm tissue culture dish with a confluent monolayer of SK-N-MC cells was split two days prior to transfection. Using sterile technique the media was removed and the cells were detached from the dish by the addition of trypsin. One fifth of the cells were then placed onto a new 10 cm dish. Cells were grown in a 37° C. incubator with 5% CO2 in Minimal Essential Media Eagle with 10% Fetal Bovine Serum. After two days cells were approximately 80% confluent. These were removed from the dish with trypsin and pelleted in a clinical centrifuge. The pellet was then re-suspended in 400 μL complete media and transferred to an electroporation cuvette with a 0.4 cm gap between the electrodes (Bio-Rad #165–2088). One microgram of supercoiled H3 receptor cDNA was added to the cells and mixed. The voltage for the electroporation was set at 0.25 kV, the capacitance was set at 960 μF. After electroporation the cells were diluted into 10 mL complete media and plated onto four 10 cm dishes. Because of the variability in the efficiency of electroporation, four different concentrations of cells were plated. The ratios used were; 1:20, 1:10, 1:5, with the remainder of the cells being added to the fourth dish. The cells were allowed to recover for 24 hours before adding the selection media (complete media with 600 μg/mL G418). After 10 days dishes were analyzed for surviving colonies of cells. Dishes with well isolated colonies were used. Cells from individual colonies were isolated and tested. SK-N-MC cells were used because they give efficient coupling for inhibition of adenylate cyclase. The clones that gave the most robust inhibition of adenylate cyclase in response to histamine were used for further study.
[^3H]-N-methylhistamine Binding
Cell pellets from histamine H3 receptor-expressing SK-N-MC cells were homogenized in 20 mM TrisHCI/0.5 mM EDTA. Supernatants from a 800 g spin were collected, recentrifuged at 30,000 g for 30 minutes. Pellets were re-homogenized in 50 mM Tris/5 mM EDTA (pH 7.4). Membranes were incubated with 0.8 nM [^3H]-N-methylhistamine plus/minus test compounds for 45 min at 25° C. and harvested by rapid filtration over GF/C glass fiber filters (pretreated with 0.3% polyethylenimine) followed by four washes with ice cold buffer. Filters were dried, added to 4 mL scintillation cocktail and then counted on a liquid scintillation counter. Non-specific binding was defined with 10 μM histamine. The pKi values were calculated based on a Kd of 800 pM and a ligand concentration ([L]) of 800 pM according to the formula: Ki=(IC50)/(1+([L]/(Kd))

T1 sequence (Q9Y5N1 whole entry): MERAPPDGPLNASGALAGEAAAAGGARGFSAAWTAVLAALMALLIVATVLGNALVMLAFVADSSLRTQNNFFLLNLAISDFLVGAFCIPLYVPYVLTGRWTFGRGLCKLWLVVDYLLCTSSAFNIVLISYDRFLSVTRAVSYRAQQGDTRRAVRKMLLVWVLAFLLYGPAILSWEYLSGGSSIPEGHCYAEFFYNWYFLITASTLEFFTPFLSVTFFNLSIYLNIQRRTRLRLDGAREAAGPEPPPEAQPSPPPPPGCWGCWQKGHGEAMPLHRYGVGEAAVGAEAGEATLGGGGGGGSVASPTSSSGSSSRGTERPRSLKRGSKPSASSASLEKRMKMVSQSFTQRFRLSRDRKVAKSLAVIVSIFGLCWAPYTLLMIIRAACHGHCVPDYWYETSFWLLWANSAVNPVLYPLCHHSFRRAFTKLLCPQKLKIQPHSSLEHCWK

SMILES	Ki (Ki=(IC50)/(1+([L]/(Kd))) [nM]	further results
c1ccc2c(c1)CCN(Cc1ccc(OCCCN3CCCCC3)cc1)C2 [Example 36, 2-[4-(3-Piperidin-1-yl-propoxy)-benzyl]-1,2,3,4-tetrahydro-isoquinoline]	0.7	–
c1cc(N2CCNCC2)ccc1OCCCN1CCCCC1 [Example 25, 1-[4-(3-Piperidin-1-yl-propoxy)-phenyl]-piperazine hydrochloride]	1	–
Clc1ccc(N2CC3CC2CN3Cc2ccc(OCCCN3CCCCC3)cc2)cc1 (stereo not drawn) [Example 55, 2-(4-Chloro-phenyl)-5-[4-(3-piperidin-1-yl-propoxy)-benzyl]-2,5-diaza-bicyclo[2.2.1]heptane]	1.4	–
c1ccc(CN2CCN(c3ccc(OCCCN4CCCC4)cc3)CC2)cc1 [Example 24, 1-Benzyl-4-[4-(3-pyrrolidin-1-yl-propoxy)-phenyl]-piperazine]	1.3	–
C(=C\c1ccccc1)/CN1CCN(Cc2ccc(OCCCN3CCCCC3)cc2)CC1 [Example 75, 1-(3-Phenyl-allyl)-4-[4-(3-piperidin-1-yl-propoxy)-benzyl]-piperazine]	1.6	–
c1ccc2c(c1)CCN2C1CCN(Cc2ccc(OCCCN3CCCCC3)cc2)CC1 [Example 64, 1-{1-[4-(3-Piperidin-1-yl-propoxy)-benzyl]-piperidin-4-yl}-2,3-dihydro-1H-indole]	–	Ki ([…]): 2 nM
c1ccc(NC2CCN(Cc3ccc(OCCCN4CCCCC4)cc3)CC2)nc1 [Example 41, {1-[4-(3-Piperidin-1-yl-propoxy)-benzyl]-piperidin-4-yl}-pyridin-2-yl-amine]	0.8	–
c1ccc(NCc2ccc(OCCCN3CCCCC3)cc2)cc1 [Example 62, Phenyl-[4-(3-piperidin-1-yl-propoxy)-benzyl]-amine]	7	–
C(=C1CCN(Cc2cccc(OCCCN3CCCCC3)c2)CC1)c1ccccc1 [Example 71, 1-{3-[3-(4-Benzylidene-piperidin-1-ylmethyl)-phenoxy]-propyl}-piperidine]	1.8	–
c1cc(OCCN2CCCCC2)ccc1OCCCN1CCCCC1 [Example 30, 1-{3-[4-(2-Piperidin-1-yl-ethoxy)-phenoxy]-propyl}-piperidine]	0.4	–
OCCC1CCN(Cc2ccc(OCCCN3CCCCC3)cc2)CC1 [Example 46, 2-{1-[4-(3-Piperidin-1-yl-propoxy)-benzyl]-piperidin-4-yl}-ethanol]	–	Ki ([…]): 1.2 nM
c1ccc(NCc2ccccc2OCCCN2CCCCC2)nc1 [Example 65, [2-(3-Piperidin-1-yl-propoxy)-benzyl]-pyridin-2-yl-amine]	100	–
c1ccc(CN(CCCn2cccc2-c2ccc(OCCCN3CCCCC3)cc2)Cc2ccccc2)cc1 [Example 92, Dibenzyl-(3-{2-[4-(3-piperidin-1-yl-propoxy)-phenyl]-pyrrol-1-yl}-propyl)-amine]	5.5	–
c1ccc(NCc2ccc(OCCCN3CCCC3)cc2)nc1 [Example 39, Pyridin-2-yl-[4-(3-pyrrolidin-1-yl-propoxy)-benzyl]-amine]	4.5	–
Clc1ccc(NCc2ccccc2OCCCN2CCCCC2)cc1 [Example 67, (4-Chloro-phenyl)-[2-(3-piperidin-1-yl-propoxy)-benzyl]-amine]	1500	–
CC1CCCCN1CCCOc1ccc(CN2CCCCC2)cc1 (stereo not drawn) [Example 73, 2-Methyl-1-[3-(4-piperidin-1-ylmethyl-phenoxy)-propyl]-piperidine]	1.1	–
c1cncc(C2CCCCN2Cc2ccc(OCCCN3CCCCC3)cc2)c1 (stereo not drawn) [Example 61, 1-[4-(3-Piperidin-1-yl-propoxy)-benzyl]-1,2,3,4,5,6-hexahydro-[2,3′]bipyridinyl]	2	–
c1ccc(CN2CCN(c3ccc(OCCCN4CCCCC4)cc3)CC2)cc1 [Example 27, 1-Benzyl-4-[4-(3-piperidin-1-yl-propoxy)-phenyl]-piperazine]	–	Ki ([…]): 3 nM

SMILES	Ki (Ki=(IC50)/(1+([L]/(Kd))) [nM]	further results
c1ccc(NCc2ccc(OCCCN3CCCCC3)cc2)nc1 [Example 84, [4-(3-Piperidin-1-yl-propoxy)-benzyl]-pyridin-2-yl-amine]	5	–
COc1ccc(CCN(C)Cc2ccc(OCCCN3CCCCC3)cc2)cc1OC [Example 82, [2-(3,4-Dimethoxy-phenyl)-ethyl]-methyl-[4-(3-piperidin-1-yl-propoxy)-benzyl]-amine]	1.6	–
c1ccc2c(c1)CCN(Cc1ccc(OCCN3CCCCC3)cc1)C2 [Example 21, 2-[4-(2-Piperidin-1-yl-ethoxy)-benzyl]-1,2,3,4-tetrahydro-isoquinoline]	4	–
CCN(CC)CCOc1ccc(CN2CCCCC2)cc1 [Example 81, Diethyl-[2-(4-piperidin-1-ylmethyl-phenoxy)-ethyl]-amine]	140	–
CN(C)Cc1ccc(OCCCN2CCCCC2)cc1 [Example 59, Dimethyl-[4-(3-piperidin-1-yl-propoxy)-benzyl]-amine]	2	–
Clc1ccc(NCc2ccc(OCCCN3CCCCC3)cc2)cc1 [Example 85, (4-Chloro-phenyl)-[4-(3-piperidin-1-yl-propoxy)-benzyl]-amine]	23	–
c1cc(OCCCN2CCCCC2)ccc1CNC1CCCCC1 [Example 49, Cyclohexyl-[4-(3-piperidin-1-yl-propoxy)-benzyl]-amine]	1	–
c1ccc2c(c1)CCCN2Cc1ccc(OCCCN2CCCCC2)cc1 [Example 95, 1-[4-(3-Piperidin-1-yl-propoxy)-benzyl]-1,2,3,4-tetrahydro-quinoline]	–	Ki (unit given as nm): 4.8 nM
c1cc(OCCCN2CCCCC2)ccc1CN1CCC2(CC1)OCCO2 [Example 54, 8-[4-(3-Piperidin-1-yl-propoxy)-benzyl]-1,4-dioxa-8-aza-spiro[4.5]decane]	1	–
c1cc(-c2ccc(OCCCN3CCCCC3)cc2)n(CCCN2CCCCC2)c1 [Example 96, 1-(3-{4-[1-(3-Piperidin-1-yl-propyl)-1H-pyrrol-2-yl]-phenoxy}-propyl)-piperidine]	1.5	–
c1ccc(CC2CCN(Cc3ccc(OCCCN4CCCCC4)cc3)CC2)cc1 [Example 93, 1-{3-[4-(4-Benzyl-piperidin-1-ylmethyl)-phenoxy]-propyl}-piperidine]	1.3	–
OC1(c2ccc(OCCCN3CCCCC3)cc2)CCN(Cc2ccccc2)CC1 [Example 22, 1-Benzyl-4-[4-(3-piperidin-1-yl-propoxy)-phenyl]-piperidin-4-ol]	–	Ki ([…]): 0.9 nM
CN(CCc1ccccc1)Cc1cccc(OCCCN2CCCCC2)c1 [Example 74, Methyl-phenethyl-[3-(3-piperidin-1-yl-propoxy)-benzyl]-amine]	3	–
c1ccc(CN2CCN(Cc3ccc(OCCCN4CCCCC4)cc3)CC2)cc1 [Example 90, 1-Benzyl-4-[4-(3-piperidin-1-yl-propoxy)-benzyl]-piperazine]	–	Ki ([…]): 0.9 nM
c1cc(OCCCN2CCOCC2)ccc1CN1CCCCC1 [Example 51, 4-[3-(4-Piperidin-1-ylmethyl-phenoxy)-propyl]-morpholine]	4	–
c1ccc(NCc2cccc(OCCCN3CCCCC3)c2)nc1 [Example 66, [3-(3-Piperidin-1-yl-propoxy)-benzyl]-pyridin-2-yl-amine]	8	–
CC(C)N1CCC(O)(c2ccc(OCCCN3CCCCC3)cc2)CC1 [Example 77, 1-Isopropyl-4-[4-(3-piperidin-1-yl-propoxy)-phenyl]-piperidin-4-ol]	–	Ki ([…]): 2.9 nM
CN(CCc1ccccc1)C1CCN(Cc2ccc(OCCCN3CCCCC3)cc2)CC1 [Example 42, Methyl-phenethyl-{1-[4-(3-piperidin-1-yl-propoxy)-benzyl]-piperidin-4-yl}-amine]	1.1	–
